Data on four molecules can be found in patent US20250127890A1, “COMPOSITIONS AND METHODS FOR TREATING CORONAVIRUS INFECTIOUS DISEASE-19 (COVID-19)” (THE BOARD OF REGENTS OF THE UNIVERSITY OF OKLAHOMA, priority 2021, published 2025).

Read-outs that look alike come from different tables or passages of the source.

For orientation: half-life means how long it takes for the measured level to halve. The term Kd denotes a measure of binding affinity in units of concentration.

Data set [1] deals with SARS-CoV-2. In kind it is in vivo, K18-hACE2 mice. The following applies: 10 mg/kg i.p. daily for 4 days.
Data set [2] concerns SARS-CoV-2. The format is cell-based.
Data set [3] has as its system SARS-CoV-2-infected Calu3 cells. The format is cell-based. The following applies: DCLK1-IN-1 5 μM, tasquinimod 10 μM or both.
The subject of data set [4] is SARS-CoV-2 infected Calu-3 lung cells. As to the kind of experiment: Label-free quantitative proteomic analysis of SARS-CoV-2-infected Calu-3 lung cells. In kind it is cell-based.
The subject of data set [5] is SARS-CoV-2. In kind it is cell-based. The source holds these as a separate data set.
Data set [6] relates to SARS-CoV-2. Briefly: Western blot of viral proteins and DCLK1 in SARS-CoV-2-infected Calu3 lung cells. In kind it is cell-based.
For data set [7], the system named is SARS-CoV-2 nucleocapsid and membrane proteins. Briefly: Phosphoproteomic analysis of viral proteins in infected Calu3 cells. In kind it is cell-based.
The subject of another data set is Omicron B.1.1.529 virus. In kind it is cell-based, SARS-CoV-2. The following applies: 5 μM and 10 μM, in comparison to vehicle-treated control.
For data set [8] the following is noted: mice, cited from earlier work.
Data set [9] relates to SARS-CoV-2. Briefly: TCID50 titer of infectious SARS-CoV-2 particles in culture supernatants of infected Calu3 cells. The conditions noted are these: treated vs untreated. The format is cell-based.
The target in the next data set is T1, kinase domain of DCLK1 (Homo sapiens, UniProt O15075).
T1 sequence (O15075 390-647 limits assumed): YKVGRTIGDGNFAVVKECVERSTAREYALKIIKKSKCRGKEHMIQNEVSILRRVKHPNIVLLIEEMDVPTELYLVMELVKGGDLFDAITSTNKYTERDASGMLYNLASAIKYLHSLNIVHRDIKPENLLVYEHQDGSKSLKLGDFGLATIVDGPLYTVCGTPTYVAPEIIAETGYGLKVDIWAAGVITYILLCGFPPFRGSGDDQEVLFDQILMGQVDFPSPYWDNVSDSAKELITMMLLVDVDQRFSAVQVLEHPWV
The following applies: cited from earlier work.

The test system of data set [10] is SARS-CoV-2-infected Huh7-RFP-DCLK1 cells with normal human PBMCs. Briefly: Multiplex cytokine assay of spent supernatants from infected Huh7-RFP-DCLK1 / PBMC mixed cocultures. In kind it is cell-based. The conditions noted are these: 5 μM, 48 h. As to the method: Tissue culture supernatants and sera were analyzed using a custom-made human Magnetic Luminex Assay Kit (LXSAHM-15; R&D Systems) for the following analytes: TNF-α, IFNα, IFNβ, IFNγ, IL-1β, IL-2, IL-4, IL-6, IL-8, IL-10, IL-17, CCL2, M-CSF, GM-CSF, and VEGF-A. Samples were processed in replicates and quantified using the BioPlex 200 System (Bio-Rad). The concentration of each analyte was expressed as pg/mg of total protein. Analyte levels in normal serum or control supernatants were set at 100% when compared to test samples.
To assess the effect of DCLK1 kinase on cytokine production during SARS-CoV-2 infection, we mixed infected Huh7-RFP-DCLK1 cells with normal human PBMCs in the presence of 5 μM DCLK1-IN-1 for 48 h. Spent supernatants were assayed for cytokines/chemokines/growth factors using a multiplex system. As with infected Calu3 cells, DCLK1-IN-1 blocked Spike (FIG. 8A, lane 2, Set 2). […] However, PBMCs were responsive to SARS-CoV-2-infected cells as indicated by increased secretion of TNF-α, IL-1β, IL-6, and IL-10 in spent media compared to uninfected cells (FIG. 8B). DCLK1-IN-1 treatment led to downregulation of cytokines involved in inflammation and viral response (TNF-α, IFNα, IFNγ, and IL-10; FIG. 8C). […] Since CCL2 participates in normal wound healing, an increase in this chemokine may contribute to tissue healing after viral clearance. […]

A further data set deals with T2, GM-CSF (Homo sapiens, UniProt P04141).
T2 construct: host or cells: COVID-19 patients (endogenous GM-CSF)
The following applies: clinical trial; cited from earlier work.

T2 sequence (P04141 18-144): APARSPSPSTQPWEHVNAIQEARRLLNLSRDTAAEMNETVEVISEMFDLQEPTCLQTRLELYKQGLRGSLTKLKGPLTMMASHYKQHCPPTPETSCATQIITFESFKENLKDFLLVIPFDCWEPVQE

On to `COc1cc(N2CCN(C)CC2)ccc1Nc1ncc2c(n1)N(C)c1ccccc1C(=O)N2CC(F)(F)F` [DCLK1-IN-1], for which, in the data set with SARS-CoV-2 [1], the “Dclk1 and S100A9 in lung (confocal microscopy)” value was “low expression”; the “expression of Spike and nucleocapsid proteins in lung (Western blot)” value was “reduced or absent”; the “staining for Spike in lung (confocal microscopy)” value is reported as “rare or weak”. Besides, the “lung histopathological features (H&E)” value in the data set with SARS-CoV-2 [1] (lungs collected on day 5) is “significantly improved”. Also, the “effect on Spike” value with SARS-CoV-2 [2] is listed as “blocked Spike”. Further, the “active forms of caspase 1 and IL-1β” value in data set [3] is “downregulated”. Moreover, in [4] (infected Calu3, proteomics), the nucleocapsid protein abundance result is “not decreased”; the “viral structural proteins (membrane and Spike) and accessory proteins (ORF7a, ORF8, and ORF9b)” value was “significantly downregulated”. Besides, in [4] (infected Calu3, proteomics, GSPT2, SAMD4B, WDR75 validated by Western blot), the “8 host proteins upregulated by SARS-CoV-2 (GSPT2, LGALS1, ENO2, H3C15, LXN, SAMD4B, SPTA1 and WDR75)” value was “normalized”. Besides, the “21 cellular proteins downregulated by SARS-CoV-2 infection” value in data set [4] (several of these proteins, data not shown) is “restored to normal”. The Spike by immunofluorescence result in the data set on SARS-CoV-2 [5] is “downregulation of Spike”. Further, the “loss of intracellular viral proteins (nucleocapsid and Spike)” value in the data set on SARS-CoV-2 [6] (5 μM, infected Calu3, Western blot) is listed as around 65%. Besides, in the data set with SARS-CoV-2 [6] (10 μM, infected Calu3, Western blot), the “loss of intracellular viral proteins (nucleocapsid and Spike)” value is reported as around 95%. Moreover, the DCLK1 protein levels entry in the data set with SARS-CoV-2 [6] (infected Calu3, Western blot) was “not significantly affected”. In addition, the “reduction in intracellular viral proteins (nucleocapsid and Spike)” value in the data set with SARS-CoV-2 [6] (infected Calu3, Western blot, compared to untreated control) is on record as “strong dose-response reduction”. Moreover, the “phosphorylation of five serine residues (S2, S176, S180, S201, and S202) of nucleocapsid protein” value in data set [7] (compared with untreated and vehicle-treated infected cells) is “significant decrease”. For the same molecule, in data set [7] (infected cells, phosphoproteomics), the “phosphorylation of viral membrane protein (M) at S212, S213 and S214” value is given as “significantly reduced”. Further, in the data set with Omicron B.1.1.529 virus, the “inhibition of Omicron virus production” value was 80%-90%. Further, the “adverse effects / body weight at MTD” value in data set [8] (100 mg/kg) is recorded as “no adverse effects or loss of body weight”. In addition, in data set [8], the half-life was 2.09 h and the “maximum tolerated dose (MTD)” value is 100 mg/kg. In addition, in the data set on SARS-CoV-2 [9] (5 μM), the “decrease in infectivity (TCID50)” value is reported as 4 fold. In addition, the “decrease in infectivity (TCID50)” value in the data set with SARS-CoV-2 [9] (10 μM) is 10 fold. In addition, on kinase domain of DCLK1 (binds the kinase domain of DCLK1), the dissociation constant Kd was 109 nM. Moreover, in [10], the “CCL2 (MCP-1)” value is on record as “increased expression”; the “cytokines involved in inflammation and viral response (TNF-α, IFNα, IFNγ, and IL-10)” value is “downregulation”.
Turning to `COc1cc(N2CCN(C)CC2)ccc1Nc1ncc2c(n1)N(C)c1ccc(C)cc1C(=O)N2CC(F)(F)F` [DCLK1-NEG], the “effect on Spike” value in the data set with SARS-CoV-2 [6] was “did not reduce Spike”. Further, at kinase domain of DCLK1 (structural analog used as negative control), the binding affinity entry is “low binding affinity”.
`COc1cccc2c1c(O)c(C(=O)N(C)c1ccc(C(F)(F)F)cc1)c(=O)n2C` [tasquinimod]: in data set [3], the “active forms of caspase 1 and IL-1β” value is given as “downregulated”.

B1: lenzilumab: a GM-CSF inhibitor (antibody, chains of the INN, looked up, V domains shown)
VH: QVQLVQSGAEVKKPGASVKVSCKASGYSFTNYYIHWVRQAPGQRLEWMGWINAGNGNTKYSQKFQGRVTITRDTSASTAYMELSSLRSEDTAVYYCVRRQRFPYYFDYWGQGTLVTVSS
VL: EIVLTQSPATLSVSPGERATLSCRASQSVGTNVAWYQQKPGQAPRVLIYSTSSRATGITDRFSGSGSGTDFTLTISRLEPEDFAVYYCQQFNKSPLTFGGGTKVEIK
As to B1, in the data set with GM-CSF, the “survival of COVID-19 patients” value is given as “significantly improved”.
